# Experiments:
# rat TTR gene = experiment: In vivo editing of TTR in rat liver after LNP delivery (NGS, % editing); set-up: species or system rat (Sprague-Dawley)
# Procedure, shortened: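 Four-component LNPs (ionizable amine lipid, DSPC, cholesterol, PEG lipid) carried Cas9 mRNA and a chemically modified sgRNA against rat TTR, made by impinging jet mixing at an N:P near 6. They were injected into the lateral tail vein of female Sprague-Dawley rats. Liver genomic DNA collected at 6 or 7 days was amplicon-sequenced on Illumina MiSeq to calculate percent indels.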
# rat TTR = experiment: Serum TTR level after LNP delivery (Rat Prealbumin (Transthyretin) ELISA); type: in vivo, rat (Sprague-Dawley); conditions: LNP with PEG2K-DMG
# Procedure: Sprague-Dawley female rats, ranging from 6-10 weeks of age were used in each study. Animals were weighed and dosed based on individual body weight measured the morning of dosing. LNPs were dosed via the lateral tail vein in a volume of 2 mL per kilogram of animal body weight. The animals were periodically observed for adverse effects for at least 24 hours post dose.
# For studies measuring in vivo editing in liver, Sprague-Dawley female rats were dosed at 0.1 mpk or 0.03 mpk, unless otherwise noted. Animals were euthanized at 6 or 7 days by carbon dioxide asphyxiation and a heart clip or by ex sanguination via cardiac puncture under isoflourane anesthesia. Blood was collected into serum separator tubes. Liver tissue was collected. Genomic DNA was isolated from the liver tissue for editing measurement by Next-Generation Sequencing (NGS).
# Blood was collected and the serum was isolated as indicated. The total rat TTR serum levels were determined using a Rat Prealbumin (Transthyretin) ELISA Kit (Aviva Systems Biology, Cat. #OKIA00159). Briefly, sera were serial diluted with kit sample diluent to a final dilution of 10,000-fold. This diluted sample was then added to the ELISA plates and the assay was then carried out according to manufacturer's protocol.
# In vivo editing efficiency for materials delivered with formulations including various amine lipid (or ionizable lipid) compounds in Experiments 1 through 14 as described in Tables 3 and 4 was assessed. Editing was measured using G000534 (SEQ ID NO: 5) which targets the rat TTR gene. Lipids described above were assessed for efficacy through in vivo editing experiments. LNPs were formulated at a 1:2 w/w ratio of sgRNA (SEQ ID NO: 5) and Cas9 mRNA (SEQ ID NO: 3). In Experiments 1 through 13, lipid components of the LNP are formulated in a molar ratio of 50% ionizable lipid, 38% cholesterol, 9% DSPC, and 3% PEG2K-DMG. In Experiment 14, lipid components of the LNP are formulated in a molar ratio of 50% ionizable lipid, 38% cholesterol, 9% DSPC, and 3% C13 Ether. The final LNPs used in different in vivo editing experiments were characterized to determine the encapsulation efficiency (% E), polydispersity index (PDI), and average particle size (Z-avg and number mean) according to the analytical methods provided above. The pKa values of each of the following ionizable lipids were also measured to be in the range of about 5.8 to about 7.6.
# TSS was used as a vehicle-only negative control. The data are illustrated in FIGS. 1A through 14.
# [1] = Experiment 2, 0.1 mpk, LNP with PEG2K-DMG
# [2] = Experiment 3, 0.1 mpk, LNP with PEG2K-DMG
# [3] = Experiment 14, 0.03 mpk, LNP with C13 Ether
# [4] = Experiment 10, 0.1 mpk, LNP with PEG2K-DMG
# [5] = Experiment 1, 0.1 mpk, LNP with PEG2K-DMG
# [6] = Experiment 4, 0.1 mpk, LNP with PEG2K-DMG
# [7] = Experiment 5, 0.1 mpk, LNP with PEG2K-DMG
# [8] = Experiment 7, 0.1 mpk, LNP with PEG2K-DMG
# [9] = Experiment 12, 0.04 mpk, LNP with PEG2K-DMG
structure (smiles),measurement,setting,value
"CCCCCCCCC(CCCCCCCC)OC(=O)CCCC(=O)OCC(COC(=O)CCCC(=O)OC(CCCCCCCC)CCCCCCCC)COC(=O)OCCCN(CC)CC [Compound 2, O,O′-(2-((((3-(diethylamino)propoxy)carbonyl)oxy)methyl)propane-1,3-diyl) di(heptadecan-9-yl) diglutarate]",Mean % editing,rat TTR gene; [1],59.8%
same,Mean % editing,rat TTR gene; [2],38.3%
same,Mean % editing,rat TTR gene; [3],21.2%
same,% TSS (serum TTR relative to vehicle),"rat TTR; Experiment 2, 0.1 mpk",17%
same,Serum TTR,"rat TTR; Experiment 2, 0.1 mpk",238.5 µg/mL
CCCCC/C=C\C/C=C\CCCCCCCC(=O)OCC(COC(=O)CCCC(=O)OC(CCCCCCCC)CCCCCCCC)COC(=O)OCCCN(CC)CC (stereo not drawn) [Compound 56],Mean % editing,rat TTR gene; [1],50.9%
same,Mean % editing,rat TTR gene; [4],53.0%
same,% TSS (serum TTR relative to vehicle),"rat TTR; Experiment 2, 0.1 mpk",28%
same,Serum TTR,"rat TTR; Experiment 2, 0.1 mpk",390.1 µg/mL
CCCCC/C=C\C/C=C\CCCCCCCC(=O)OCC(COC(=O)CCC(OCCCCCCCC)OCCCCCCCC)COC(=O)OCCCN(CC)CC (stereo not drawn) [Compound 53],Mean % editing,rat TTR gene; [5],38.6%
same,Mean % editing,rat TTR gene; [1],55.2%
same,Mean % editing,rat TTR gene; [2],41.4%
same,Mean % editing,rat TTR gene; [6],41.8%
same,Mean % editing,rat TTR gene; [7],42.8%
same,Mean % editing,"rat TTR gene; Experiment 6, 0.1 mpk, LNP with PEG2K-DMG",47.1%
same,Mean % editing,rat TTR gene; [8],31.5%
same,Mean % editing,"rat TTR gene; Experiment 8, 0.1 mpk, LNP with PEG2K-DMG",47.8%
same,Mean % editing,"rat TTR gene; Experiment 9, 0.1 mpk, LNP with PEG2K-DMG",42.6%
same,Mean % editing,rat TTR gene; [4],44.2%
same,Mean % editing,"rat TTR gene; Experiment 11, 0.1 mpk, LNP with PEG2K-DMG",42.0%
same,Mean % editing,"rat TTR gene; Experiment 13, 0.03 mpk, LNP with PEG2K-DMG",8.5%
same,Mean % editing in rat liver,"rat TTR gene; NGS, dose 0.03 mpk, LNP with G000534 sgRNA and Cas9 mRNA 1:2 w/w, 3% C13 Ether (Compound 53: 3% PEG2K-DMG), N=5 (Compound 33: N=4)",9.9%
same,Mean % editing,"rat TTR gene; Table 6, 0.03 mpk, PEG lipid C13 Ether",7.5%
same,Mean % editing,"rat TTR gene; Table 6, 0.03 mpk, PEG lipid C14 Ether",4.2%
same,Mean % editing,"rat TTR gene; Table 6, 0.03 mpk, PEG lipid PEG2K-DMG",9.6%
same,% TSS (serum TTR relative to vehicle),"rat TTR; Experiment 1, 0.1 mpk",48%
same,Serum TTR,"rat TTR; Experiment 1, 0.1 mpk",519.9 µg/mL
same,% TSS (serum TTR relative to vehicle),"rat TTR; Experiment 2, 0.1 mpk",24%
same,Serum TTR,"rat TTR; Experiment 2, 0.1 mpk",341.9 µg/mL
same,% TSS (serum TTR relative to vehicle),"rat TTR; Experiment 5, 0.1 mpk",44%
same,Serum TTR,"rat TTR; Experiment 5, 0.1 mpk",624.1 µg/mL
"CCCCC/C=C\C/C=C\CCCCCCCC(=O)OCC(CCCCCCCCC(=O)OC(CCCCCCCC)CCCCCCCCC)COC(=O)CCC(CCCC)OC(=O)NCCN(C)CC (stereo not drawn) [Compound 26, 9-butyl-3-methyl-15-(9-(octadecan-9-yloxy)-9-oxononyl)-7,12-dioxo-8,13-dioxa-3,6-diazahexadecan-16-yl (9Z,12Z)-octadeca-9,12-dienoate]",Mean % editing,rat TTR gene; [7],41.9%
same,% TSS (serum TTR relative to vehicle),"rat TTR; Experiment 5, 0.1 mpk",35%
same,Serum TTR,"rat TTR; Experiment 5, 0.1 mpk",502.9 µg/mL
CCCCC/C=C\C/C=C\CCCCCCCC(=O)OCC(COC(=O)CCC(OCCCCCCCC)OCCCCCCCC)COC(=O)NCCN(CC)CC (stereo not drawn) [Compound 54],Mean % editing,rat TTR gene; [5],36.9%
same,% TSS (serum TTR relative to vehicle),"rat TTR; Experiment 1, 0.1 mpk",48%
same,Serum TTR,"rat TTR; Experiment 1, 0.1 mpk",512.9 µg/mL
CCCCC/C=C\C/C=C\CCCCCCCC(=O)OCC(COC(=O)CCCCCC(=O)OC(CCCCCCCC)CCCCCCCC)COC(=O)OCCCN(CC)CC (stereo not drawn) [Compound 57],Mean % editing,rat TTR gene; [1],46.7%
same,Mean % editing,rat TTR gene; [2],39.5%
same,% TSS (serum TTR relative to vehicle),"rat TTR; Experiment 2, 0.1 mpk",30%
same,Serum TTR,"rat TTR; Experiment 2, 0.1 mpk",412.3 µg/mL
CCCCC/C=C\C/C=C\CCCCCCCC(=O)OCC(COC(=O)CCCC(=O)OC(CCCCCCCC)CCCCCCCC)COC(=O)NCCN(CC)CC (stereo not drawn) [Compound 58],Mean % editing,rat TTR gene; [5],44.7%
same,Mean % editing,rat TTR gene; [1],60.4%
same,Mean % editing,rat TTR gene; [4],56.5%
same,% TSS (serum TTR relative to vehicle),"rat TTR; Experiment 1, 0.1 mpk",38%
same,Serum TTR,"rat TTR; Experiment 1, 0.1 mpk",406.3 µg/mL
same,% TSS (serum TTR relative to vehicle),"rat TTR; Experiment 2, 0.1 mpk",14%
same,Serum TTR,"rat TTR; Experiment 2, 0.1 mpk",198.8 µg/mL
"CCCCCCC(CCCC)COC(=O)CCCCCC(=O)OCC(COC(=O)CCCCCC(=O)OCC(CCCC)CCCCCC)COC(=O)OCCCN(CC)CC (stereo not drawn) [Compound 5, 7,7′-bis(2-butyloctyl) O′1,O1-(2-((((3-(diethylamino)propoxy)carbonyl)oxy)methyl)propane-1,3-diyl) di(heptanedioate)]",Mean % editing,rat TTR gene; [1],52.0%
same,% TSS (serum TTR relative to vehicle),"rat TTR; Experiment 2, 0.1 mpk",25%
same,Serum TTR,"rat TTR; Experiment 2, 0.1 mpk",346.5 µg/mL
"CCCCC/C=C\C/C=C\CCCCCCCC(=O)OCC(CCCCCCCCC(=O)OC(CCCCCCCC)CCCCCCCCC)COC(=O)CCC(CCCC)OC(=O)NCCN1CCCC1 (stereo not drawn) [Compound 27, 11-(octadecan-9-yloxy)-11-oxo-2-(((4-(((2-(pyrrolidin-1-yl)ethyl)carbamoyl)oxy)octanoyl)oxy)methyl)undecyl (9Z,12Z)-octadeca-9,12-dienoate]",Mean % editing,rat TTR gene; [7],55.3%
same,% TSS (serum TTR relative to vehicle),"rat TTR; Experiment 5, 0.1 mpk",21%
same,Serum TTR,"rat TTR; Experiment 5, 0.1 mpk",294.3 µg/mL
"CCCCC/C=C\C/C=C\CCCCCCCC(=O)OCC(COC(=O)CCCCCC(=O)OCC(CCCC)CCCCCC)COC(=O)OCCCN(CC)CC (stereo not drawn) [Compound 4, 1-(2-butyloctyl) 7-(3-(((3-(diethylamino)propoxy)carbonyl)oxy)-2-((((9Z,12Z)-octadeca-9,12-dienoyl)oxy)methyl)propyl) heptanedioate]",Mean % editing,rat TTR gene; [1],27.2%
same,Mean % editing,rat TTR gene; [2],29.7%
same,% TSS (serum TTR relative to vehicle),"rat TTR; Experiment 2, 0.1 mpk",46%
same,Serum TTR,"rat TTR; Experiment 2, 0.1 mpk",647.4 µg/mL
CCCCC/C=C\C/C=C\CCCCCCCC(=O)OCC(COC(=O)CCCCCC(=O)OC(CCCCCCCC)CCCCCCCC)COC(=O)NCCN(CC)CC (stereo not drawn) [Compound 59],Mean % editing,rat TTR gene; [5],36.7%
same,Mean % editing,rat TTR gene; [1],53.4%
same,% TSS (serum TTR relative to vehicle),"rat TTR; Experiment 1, 0.1 mpk",50%
same,Serum TTR,"rat TTR; Experiment 1, 0.1 mpk",533.0 µg/mL
same,% TSS (serum TTR relative to vehicle),"rat TTR; Experiment 2, 0.1 mpk",20%
same,Serum TTR,"rat TTR; Experiment 2, 0.1 mpk",276.6 µg/mL
"CCCCC/C=C\C/C=C\CCCCCCCC(=O)OCC(CCCCCCCCC(=O)OC(CCCCCCCC)CCCCCCCCC)COC(=O)CCC(CCCCCCCC)OC(=O)NCCN1CCCC1 (stereo not drawn) [Compound 25, 11-(octadecan-9-yloxy)-11-oxo-2-(((4-(((2-(pyrrolidin-1-yl)ethyl)carbamoyl)oxy)dodecanoyl)oxy)methyl)undecyl (9Z,12Z)-octadeca-9,12-dienoate]",Mean % editing,rat TTR gene; [7],17.0%
same,% TSS (serum TTR relative to vehicle),"rat TTR; Experiment 5, 0.1 mpk",70%
same,Serum TTR,"rat TTR; Experiment 5, 0.1 mpk",998.3 µg/mL
"CCCCCCCCOC(CCC(=O)OCC(COC(=O)CC(CCCC)CCCCCC)COC(=O)OCCCN(CC)CC)OCCCCCCCC (stereo not drawn) [Compound 43, 3-((4,4-bis(octyloxy)butanoyl)oxy)-2-((((3-(diethylamino)propoxy)carbonyl)oxy)methyl)propyl 3-butylnonanoate]",Mean % editing,rat TTR gene; [8],57.5%
"CCCCC/C=C\C/C=C\CCCCCCCC(=O)OCC(CCCCCCCCC(=O)OC(CCCCCCCC)CCCCCCCC)COC(=O)NCCN(CC)CC (stereo not drawn) [Compound 10, 2-((((2-(diethylamino)ethyl)carbamoyl)oxy)methyl)-11-(heptadecan-9-yloxy)-11-oxoundecyl (9Z,12Z)-octadeca-9,12-dienoate]",Mean % editing,rat TTR gene; [6],35.3%
"CCCCCCCCC(CCCCCCCC)OC(=O)CCCC(=O)OCC(C)(COC(=O)CCCC(=O)OC(CCCCCCCC)CCCCCCCC)COC(=O)NCCN(CC)CC [Compound 36, O,O′-(2-((((2-(diethylamino)ethyl)carbamoyl)oxy)methyl)-2-methylpropane-1,3-diyl) di(heptadecan-9-yl) diglutarate]",Mean % editing,rat TTR gene; [9],27.4%
"CCCCCCC(CCCCCC)OC(=O)CCCC(=O)OCC(COC(=O)CCCC(=O)OC(CCCCCC)CCCCCC)COC(=O)NCCN(CC)CC [Compound 37, O,O′-(2-((((2-(diethylamino)ethyl)carbamoyl)oxy)methyl)propane-1,3-diyl) di(tridecan-7-yl) diglutarate]",Mean % editing,rat TTR gene; [9],38.1%
"CCCCCCCCC(CCCCCCCC)OC(=O)CCCC(=O)OCC(COC(=O)CCCC(=O)OC(CCCCCCCC)CCCCCCCC)OC(=O)NCCN(CC)CC [Compound 35, O,O′-(2-(((2-(diethylamino)ethyl)carbamoyl)oxy)propane-1,3-diyl) di(heptadecan-9-yl) diglutarate]",Mean % editing,rat TTR gene; [3],10.3%

# — patent US20260337153A1, “IONIZABLE AMINE LIPIDS” (Intellia Therapeutics, Inc., priority 2023, published 2026)
